# According to PMC7419507, “In vitro Cas9-assisted editing of modular polyketide synthase genes to produce desired natural product derivatives” (Nature Communications, 2020):
# pEC50: −log10 of the molar value. Where “and” joins values, the source holds several entries; their conditions need not be identical. Identical values can stand only once.
# Key:
# FKBP12 and mTOR = molecular target: T1, FKBP12 and mTOR (Homo sapiens, UniProt P42345+P62942); assay: Fluoppi analysis: induction of FKBP12-mTOR complex formation in transfected HeLa cells; type: cell-based; details: for Foci intensity: raw data, one replicate per line
# T1 construct: host or cells: HeLa cells
# T1 sequence (P42345 2025-2114 limits assumed): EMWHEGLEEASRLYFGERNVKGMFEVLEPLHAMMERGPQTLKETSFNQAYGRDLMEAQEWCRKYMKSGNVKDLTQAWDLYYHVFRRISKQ
# T1 sequence (P62942 whole entry): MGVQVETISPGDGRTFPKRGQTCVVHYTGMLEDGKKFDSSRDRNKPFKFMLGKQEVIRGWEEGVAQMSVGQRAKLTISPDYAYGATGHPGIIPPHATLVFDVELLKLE
# Summary of the method: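 Complex formation read as fluorescent foci: foci intensity over total per-cell intensity, imaged (×20, 9 fields/well) after fixation and Hoechst stain, giving EC50. Cells: HeLa transiently expressing hAG-mTOR and Ash-FKBP12, exposed to compound concentrations for 1 h at 37 °C.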
# [1] = Cytotoxicity assay (CellTiter-Glo, 72 h), Jurkat; type: cell-based; details: human, Jurkat cells (T lymphoma), raw data (replicates)
# Summary of the method: (§1)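 Incubate 4 h at 37 °C, 5% CO2. Add 2-fold compound dilutions, 0.5% DMSO. After 72 h, read CellTiter-Glo luminescence.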
# T lymphoma Jurkat cells = assay: Cytotoxicity assay (CellTiter-Glo, 72 h), Jurkat; type: cell-based; details: raw data (replicates)
# Summary of the method: as §1
# [2] = Cytotoxicity assay (CellTiter-Glo, 72 h), SKOV-3; type: cell-based, human; details: human, raw replicate data, read-out: SKOV3 viability (%)
# Summary of the method: as §1
# [3] = tested on: human ovarian adenocarcinoma SKOV-3 cells; assay: Cytotoxicity assay (CellTiter-Glo, 72 h), SKOV-3; type: cell-based; details: raw replicate data
# Summary of the method: as §1
# [4] = tested on: Jurkat, SKOV-3 and MESO-1 cells; assay: Cytotoxicity assay, statements for all tested cell lines together; type: cell-based; details: Jurkat, SKOV-3 and MESO-1 cells, 72 h
# Summary of the method: as §1
structure (smiles),measurement,setting,value
"CO[C@@H]1C[C@H](C[C@@H](C)[C@@H]2CC(=O)[C@H](C)/C=C(\C)[C@@H](O)[C@@H](OC)C(=O)[C@H](C)C[C@H](C)/C=C/C=C/C=C(\C)[C@H](O)C[C@@H]3CC[C@@H](C)[C@@](O)(O3)C(=O)C(=O)N3CCCC[C@H]3C(=O)O2)CC[C@H]1O [Compound 17, (16R)-16-O-demethyl rapamycin]","PPI-inducing (binding enhancing) activity between FKBP12 and mTOR compared with rapamycin (1), in words",FKBP12 and mTOR; Fluoppi,relatively weaker activities
same,pEC50,"FKBP12 and mTOR; Fluoppi, HeLa cells, 1 h treatment, three independent biological replicates, read-out: EC50, induction of the formation of FKBP-mTOR complex",7.24
same,Foci intensity,FKBP12 and mTOR; conc 9.53674e-5 uM,0.008575 and 0.02543 and 0.01782
same,Foci intensity,FKBP12 and mTOR; conc 0.000190735 uM,0.01164 and 0.0145 and 0.01487
same,Foci intensity,FKBP12 and mTOR; conc 0.00038147 uM,0.01856 and 0.01046 and 0.003947
same,Foci intensity,FKBP12 and mTOR; conc 0.000762939 uM,0.01936 and 0.005776 and 0.02867
same,Foci intensity,FKBP12 and mTOR; conc 0.00152588 uM,0.005895 and 0.00599 and 0.02244
same,Foci intensity,FKBP12 and mTOR; conc 0.00305176 uM,0.01605 and 0.01212 and 0.008772
same,Foci intensity,FKBP12 and mTOR; conc 0.00610352 uM,0.0303 and 0.01224 and 0.02086
same,Foci intensity,FKBP12 and mTOR; conc 0.012207 uM,0.01472 and 0.01188 and 0.01532
same,Foci intensity,FKBP12 and mTOR; conc 0.0244141 uM,0.02138 and 0.01399 and 0.02345
same,Foci intensity,FKBP12 and mTOR; conc 0.0488281 uM,0.1099 and 0.1021 and 0.1573
same,Foci intensity,FKBP12 and mTOR; conc 0.0976562 uM,0.2733 and 0.3147 and 0.3434
same,Foci intensity,FKBP12 and mTOR; conc 0.195312 uM,0.354 and 0.3591 and 0.4502
same,Foci intensity,FKBP12 and mTOR; conc 0.390625 uM,0.4005 and 0.429 and 0.3736
same,Foci intensity,FKBP12 and mTOR; conc 0.78125 uM,0.395 and 0.3804 and 0.4169
same,Foci intensity,FKBP12 and mTOR; conc 1.5625 uM,0.3124 and 0.2927 and 0.3257
same,Foci intensity,FKBP12 and mTOR; conc 3.125 uM,0.3411 and 0.3385 and 0.2558
same,Foci intensity,FKBP12 and mTOR; conc 6.25 uM,0.3119 and 0.3692 and 0.3726
same,Foci intensity,FKBP12 and mTOR; conc 12.5 uM,0.3802 and 0.3948 and 0.3075
same,Foci intensity,FKBP12 and mTOR; conc 25 uM,0.3555 and 0.3578 and 0.2982
same,Foci intensity,FKBP12 and mTOR; conc 50 uM,0.2808 and 0.2653 and 0.2658
same,"viability at 72 h, 9.53674e-05 uM",[1]; conc 9.53674e-5 uM,98.1%
same,"viability at 72 h, 0.000190735 uM",[1]; conc 0.000190735 uM,101%
same,"viability at 72 h, 0.00038147 uM",[1]; conc 0.00038147 uM,107%
same,"viability at 72 h, 0.000762939 uM",[1]; conc 0.000762939 uM,100%
same,"viability at 72 h, 0.00152588 uM",[1]; conc 0.00152588 uM,106%
same,"viability at 72 h, 0.00305176 uM",[1]; conc 0.00305176 uM,95.3%
same,"viability at 72 h, 0.00610352 uM",[1]; conc 0.00610352 uM,96.3%
same,"viability at 72 h, 0.012207 uM",[1]; conc 0.012207 uM,74.7%
same,"viability at 72 h, 0.0244141 uM",[1]; conc 0.0244141 uM,79%
same,"viability at 72 h, 0.0488281 uM",[1]; conc 0.0488281 uM,40%
same,"viability at 72 h, 0.0976562 uM",[1]; conc 0.0976562 uM,39.6%
same,"viability at 72 h, 0.195312 uM",[1]; conc 0.195312 uM,36.3%
same,"viability at 72 h, 0.390625 uM",[1]; conc 0.390625 uM,32.4%
same,"viability at 72 h, 0.78125 uM",[1]; conc 0.78125 uM,32.4%
same,"viability at 72 h, 1.5625 uM",[1]; conc 1.5625 uM,29.2%
same,"viability at 72 h, 3.125 uM",[1]; conc 3.125 uM,28.8%
same,"viability at 72 h, 6.25 uM",[1]; conc 6.25 uM,28.5%
same,"viability at 72 h, 12.5 uM",[1]; conc 12.5 uM,30.5%
same,"viability at 72 h, 25 uM",[1]; conc 25 uM,28.8%
same,"viability at 72 h, 50 uM",[1]; conc 50 uM,21.6%
same,Jurkat viability (%),T lymphoma Jurkat cells; conc 9.53674e-5 uM,104.2% and 104.9%
same,Jurkat viability (%),T lymphoma Jurkat cells; conc 0.000190735 uM,98.3% and 107.4%
same,Jurkat viability (%),T lymphoma Jurkat cells; conc 0.00038147 uM,107.2% and 107.3%
same,Jurkat viability (%),T lymphoma Jurkat cells; conc 0.000762939 uM,99.4%
same,Jurkat viability (%),T lymphoma Jurkat cells; conc 0.00152588 uM,99.3% and 104.0%
same,Jurkat viability (%),T lymphoma Jurkat cells; conc 0.00305176 uM,97.0% and 104.1%
same,Jurkat viability (%),T lymphoma Jurkat cells; conc 0.00610352 uM,89.4% and 97.3%
same,Jurkat viability (%),T lymphoma Jurkat cells; conc 0.012207 uM,81.9% and 78.2%
same,Jurkat viability (%),T lymphoma Jurkat cells; conc 0.0244141 uM,72.3% and 67.5%
same,Jurkat viability (%),T lymphoma Jurkat cells; conc 0.0488281 uM,50.1% and 57.1%
same,Jurkat viability (%),T lymphoma Jurkat cells; conc 0.0976562 uM,39.4% and 41.6%
same,Jurkat viability (%),T lymphoma Jurkat cells; conc 0.195312 uM,33.7% and 37.9%
same,Jurkat viability (%),T lymphoma Jurkat cells; conc 0.390625 uM,35.4% and 34.2%
same,Jurkat viability (%),T lymphoma Jurkat cells; conc 0.78125 uM,31.2% and 32.6%
same,Jurkat viability (%),T lymphoma Jurkat cells; conc 1.5625 uM,28.2% and 33.2%
same,Jurkat viability (%),T lymphoma Jurkat cells; conc 3.125 uM,27.7% and 29.4%
same,Jurkat viability (%),T lymphoma Jurkat cells; conc 6.25 uM,29.5%
same,Jurkat viability (%),T lymphoma Jurkat cells; conc 12.5 uM,26.8%
same,Jurkat viability (%),T lymphoma Jurkat cells; conc 25 uM,30.6% and 29.0%
same,Jurkat viability (%),T lymphoma Jurkat cells; conc 50 uM,21.7% and 20.3%
same,"viability at 72 h, 9.53674e-05 uM","[2]; SKOV-3 cells (ovarian adenocarcinoma), conc 9.53674e-5 uM",108%
same,"viability at 72 h, 0.000190735 uM","[2]; SKOV-3 cells (ovarian adenocarcinoma), conc 0.000190735 uM",88.6%
same,"viability at 72 h, 0.00038147 uM","[2]; SKOV-3 cells (ovarian adenocarcinoma), conc 0.00038147 uM",109%
same,"viability at 72 h, 0.000762939 uM","[2]; SKOV-3 cells (ovarian adenocarcinoma), conc 0.000762939 uM",108%
same,"viability at 72 h, 0.00152588 uM","[2]; SKOV-3 cells (ovarian adenocarcinoma), conc 0.00152588 uM",108%
same,"viability at 72 h, 0.00305176 uM","[2]; SKOV-3 cells (ovarian adenocarcinoma), conc 0.00305176 uM",107%
same,"viability at 72 h, 0.00610352 uM","[2]; SKOV-3 cells (ovarian adenocarcinoma), conc 0.00610352 uM",103%
same,"viability at 72 h, 0.012207 uM","[2]; SKOV-3 cells (ovarian adenocarcinoma), conc 0.012207 uM",97.7%
same,"viability at 72 h, 0.0244141 uM","[2]; SKOV-3 cells (ovarian adenocarcinoma), conc 0.0244141 uM",95.9%
same,"viability at 72 h, 0.0488281 uM","[2]; SKOV-3 cells (ovarian adenocarcinoma), conc 0.0488281 uM",84.3%
same,"viability at 72 h, 0.0976562 uM","[2]; SKOV-3 cells (ovarian adenocarcinoma), conc 0.0976562 uM",77.9%
same,"viability at 72 h, 0.195312 uM","[2]; SKOV-3 cells (ovarian adenocarcinoma), conc 0.195312 uM",70%
same,"viability at 72 h, 0.390625 uM","[2]; SKOV-3 cells (ovarian adenocarcinoma), conc 0.390625 uM",78.2%
same,"viability at 72 h, 12.5 uM","[2]; SKOV-3 cells (ovarian adenocarcinoma), conc 12.5 uM",65%
same,"viability at 72 h, 25 uM","[2]; SKOV-3 cells (ovarian adenocarcinoma), conc 25 uM",64.3%
same,"viability at 72 h, 50 uM","[2]; SKOV-3 cells (ovarian adenocarcinoma), conc 50 uM",62.5%
same,"viability at 72 h, 0.78125 uM","[2]; SKOV-3 ovarian adenocarcinoma cells, conc 0.78125 uM",71.6%
same,"viability at 72 h, 1.5625 uM","[2]; SKOV-3 ovarian adenocarcinoma cells, conc 1.5625 uM",72.2%
same,"viability at 72 h, 3.125 uM","[2]; SKOV-3 ovarian adenocarcinoma cells, conc 3.125 uM",67.3%
same,"viability at 72 h, 6.25 uM","[2]; SKOV-3 ovarian adenocarcinoma cells, conc 6.25 uM",66.2%
same,SKOV3 viability (%),[3]; conc 9.53674e-5 uM,109.3% and 114.5%
same,SKOV3 viability (%),[3]; conc 0.000190735 uM,90.8% and 99.6%
same,SKOV3 viability (%),[3]; conc 0.00038147 uM,115.4% and 113.9%
same,SKOV3 viability (%),[3]; conc 0.000762939 uM,109.0% and 102.3%
same,SKOV3 viability (%),[3]; conc 0.00152588 uM,112.3% and 106.1%
same,SKOV3 viability (%),[3]; conc 0.00305176 uM,107.9%
same,SKOV3 viability (%),[3]; conc 0.00610352 uM,101.8% and 106.6%
same,SKOV3 viability (%),[3]; conc 0.012207 uM,96.6% and 104.0%
same,SKOV3 viability (%),[3]; conc 0.0244141 uM,95.8%
same,SKOV3 viability (%),[3]; conc 0.0488281 uM,79.4% and 88.5%
same,SKOV3 viability (%),[3]; conc 0.0976562 uM,86.2% and 76.7%
same,SKOV3 viability (%),[3]; conc 0.195312 uM,69.8% and 72.4%
same,SKOV3 viability (%),[3]; conc 0.390625 uM,81.8% and 79.5%
same,SKOV3 viability (%),[3]; conc 0.78125 uM,70.7%
same,SKOV3 viability (%),[3]; conc 1.5625 uM,65.2% and 67.1%
same,SKOV3 viability (%),[3]; conc 3.125 uM,69.1%
same,SKOV3 viability (%),[3]; conc 6.25 uM,64.7% and 66.1%
same,SKOV3 viability (%),[3]; conc 12.5 uM,62.1% and 61.3%
same,SKOV3 viability (%),[3]; conc 25 uM,65.7% and 67.6%
same,SKOV3 viability (%),[3]; conc 50 uM,57.2% and 61.6%
same,"Effect on cell viability, in words",[4],slightly suppressed the cell viabilities
